Patent publication US4442044A, “Process for preparing monoesters and diesters of N-alkyl substituted amino methyl phosphonic acid” (priority 1983, dated 1984)

Columns and labels:
Assay in all cases: post-emergent herbicidal activity, greenhouse
Format in all cases: in vivo
Morningglory = tested on: Morningglory
Outline: (§1)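 Post-emergence foliar spray at tabulated application rates, using aliquots of a 1.0% stock in acetone, THF or water plus ~0.4% emulsifier, applied to 2–3-week-old greenhouse plants. Plant injury was rated relative to controls roughly two and four weeks after treatment.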

Panicum Spp = conditions: Table II
Outline: as §1

Yellow Nutsedge = conditions: Table I, 4 WAT
Outline: as §1

Wheat = conditions: Table II
Outline: as §1

Soybean = conditions: Table II
Outline: as §1

Sugar Beet = conditions: Table II
Outline: as §1

Cocklebur = tested on: Cocklebur
Outline: as §1

Rice = conditions: Table II
Outline: as §1

Barnyardgrass = tested on: Barnyardgrass
Outline: as §1

Hemp Sesbania = conditions: Table II
Outline: as §1

Canada Thistle = conditions: Table I, 4 WAT
Outline: as §1

Velvetleaf = tested on: Velvetleaf
Outline: as §1

Downy Brome = tested on: Downy Brome
Outline: as §1

Quackgrass = conditions: Table I, 4 WAT
Outline: as §1

Johnsongrass = conditions: Table I, 4 WAT
Outline: as §1

Wild Buckwheat = conditions: Table II
Outline: as §1

Lambsquarters = tested on: Lambsquarters
Outline: as §1

Crabgrass = conditions: Table II
Outline: as §1

Smartweed = tested on: Smartweed
Outline: as §1

Sorghum = conditions: Table II
Outline: as §1

CC(C#N)OP(=O)(CNCC#N)OC(C)C#N (stereo not drawn) [Example 12, phosphonic acid, [[(cyanomethyl)amino]-methyl],bis 1-cyanoethyl ester]
post-emergent herbicidal activity index (Morningglory; Table I, 4 WAT, 5.6 kg/h): 2 (50-74% control) | post-emergent herbicidal activity index (Morningglory; Table I, 4 WAT, 11.2 kg/h): 2 (50-74% control) | post-emergent herbicidal activity index (Morningglory; Table II, 2 WAT, 0.28 kg/h): 0 (0-24% control) | post-emergent herbicidal activity index (Morningglory; Table II, 4 WAT, 1.12 kg/h): 1 (25-49% control) | post-emergent herbicidal activity index (Panicum Spp; 2 WAT, 0.28 kg/h): 0 (0-24% control) | post-emergent herbicidal activity index (Panicum Spp; 4 WAT, 1.12 kg/h): 0 (0-24% control) | post-emergent herbicidal activity index (Panicum Spp; 4 WAT, 5.6 kg/h): 1 (25-49% control) | post-emergent herbicidal activity index (Yellow Nutsedge; 5.6 kg/h): 3 (75-99% control) | post-emergent herbicidal activity index (Yellow Nutsedge; 11.2 kg/h): 3 (75-99% control) | post-emergent herbicidal activity index (Wheat; 2 WAT, 0.28 kg/h): 0 (0-24% control) | post-emergent herbicidal activity index (Wheat; 4 WAT, 1.12 kg/h): 0 (0-24% control) | post-emergent herbicidal activity index (Wheat; 4 WAT, 5.6 kg/h): 2 (50-74% control) | post-emergent herbicidal activity index (Soybean; 2 WAT, 0.28 kg/h): 0 (0-24% control) | post-emergent herbicidal activity index (Soybean; 4 WAT, 1.12 kg/h): 1 (25-49% control) | post-emergent herbicidal activity index (Soybean; 4 WAT, 5.6 kg/h): 1 (25-49% control) | post-emergent herbicidal activity index (Sugar Beet; 2 WAT, 0.28 kg/h): 0 (0-24% control) | post-emergent herbicidal activity index (Sugar Beet; 4 WAT, 1.12 kg/h): 0 (0-24% control) | post-emergent herbicidal activity index (Sugar Beet; 4 WAT, 5.6 kg/h): 1 (25-49% control) | post-emergent herbicidal activity index (Cocklebur; Table I, 4 WAT, 5.6 kg/h): 2 (50-74% control) | post-emergent herbicidal activity index (Cocklebur; Table I, 4 WAT, 11.2 kg/h): 2 (50-74% control) | post-emergent herbicidal activity index (Cocklebur; Table II, 2 WAT, 0.28 kg/h): 0 (0-24% control) | post-emergent herbicidal activity index (Cocklebur; Table II, 4 WAT, 1.12 kg/h): 1 (25-49% control) | post-emergent herbicidal activity index (Cocklebur; Table II, 4 WAT, 5.6 kg/h): 3 (75-99% control) | post-emergent herbicidal activity index (Rice; 2 WAT, 0.28 kg/h): 0 (0-24% control) | post-emergent herbicidal activity index (Rice; 4 WAT, 1.12 kg/h): 0 (0-24% control) | post-emergent herbicidal activity index (Rice; 4 WAT, 5.6 kg/h): 2 (50-74% control) | post-emergent herbicidal activity index (Barnyardgrass; Table I, 4 WAT, 5.6 kg/h): 2 (50-74% control) | post-emergent herbicidal activity index (Barnyardgrass; Table I, 4 WAT, 11.2 kg/h): 3 (75-99% control) | post-emergent herbicidal activity index (Barnyardgrass; Table II, 2 WAT, 0.28 kg/h): 0 (0-24% control) | post-emergent herbicidal activity index (Barnyardgrass; Table II, 4 WAT, 1.12 kg/h): 1 (25-49% control) | post-emergent herbicidal activity index (Barnyardgrass; Table II, 4 WAT, 5.6 kg/h): 3 (75-99% control) | post-emergent herbicidal activity index (Hemp Sesbania; 2 WAT, 0.28 kg/h): 0 (0-24% control) | post-emergent herbicidal activity index (Hemp Sesbania; 4 WAT, 1.12 kg/h): 0 (0-24% control) | post-emergent herbicidal activity index (Hemp Sesbania; 4 WAT, 5.6 kg/h): 0 (0-24% control) | post-emergent herbicidal activity index (Canada Thistle; 5.6 kg/h): 2 (50-74% control) | post-emergent herbicidal activity index (Canada Thistle; 11.2 kg/h): 2 (50-74% control) | post-emergent herbicidal activity index (Velvetleaf; Table I, 4 WAT, 5.6 kg/h): 2 (50-74% control) | post-emergent herbicidal activity index (Velvetleaf; Table I, 4 WAT, 11.2 kg/h): 2 (50-74% control) | post-emergent herbicidal activity index (Velvetleaf; Table II, 2 WAT, 0.28 kg/h): 0 (0-24% control) | post-emergent herbicidal activity index (Velvetleaf; Table II, 4 WAT, 1.12 kg/h): 1 (25-49% control) | post-emergent herbicidal activity index (Velvetleaf; Table II, 4 WAT, 5.6 kg/h): 2 (50-74% control) | post-emergent herbicidal activity index (Downy Brome; Table I, 4 WAT, 5.6 kg/h): 2 (50-74% control) | post-emergent herbicidal activity index (Downy Brome; Table I, 4 WAT, 11.2 kg/h): 1 (25-49% control) | post-emergent herbicidal activity index (Downy Brome; Table II, 2 WAT, 0.28 kg/h): 0 (0-24% control) | post-emergent herbicidal activity index (Downy Brome; Table II, 4 WAT, 1.12 kg/h): 0 (0-24% control) | post-emergent herbicidal activity index (Downy Brome; Table II, 4 WAT, 5.6 kg/h): 3 (75-99% control) | post-emergent herbicidal activity index (Quackgrass; 5.6 kg/h): 1 (25-49% control) | post-emergent herbicidal activity index (Quackgrass; 11.2 kg/h): 2 (50-74% control) | post-emergent herbicidal activity index (Johnsongrass; 5.6 kg/h): 4 (100% control) | post-emergent herbicidal activity index (Johnsongrass; 11.2 kg/h): 3 (75-99% control) | post-emergent herbicidal activity index (Wild Buckwheat; 2 WAT, 0.28 kg/h): 0 (0-24% control) | post-emergent herbicidal activity index (Wild Buckwheat; 4 WAT, 1.12 kg/h): 1 (25-49% control) | post-emergent herbicidal activity index (Wild Buckwheat; 4 WAT, 5.6 kg/h): 0 (0-24% control) | post-emergent herbicidal activity index (Lambsquarters; Table I, 4 WAT, 5.6 kg/h): 3 (75-99% control) | post-emergent herbicidal activity index (Lambsquarters; Table I, 4 WAT, 11.2 kg/h): 2 (50-74% control) | post-emergent herbicidal activity index (Lambsquarters; Table II, 2 WAT, 0.28 kg/h): 1 (25-49% control) | post-emergent herbicidal activity index (Lambsquarters; Table II, 4 WAT, 1.12 kg/h): 2 (50-74% control) | post-emergent herbicidal activity index (Lambsquarters; Table II, 4 WAT, 5.6 kg/h): 4 (100% control) | post-emergent herbicidal activity index (Crabgrass; 2 WAT, 0.28 kg/h): 0 (0-24% control) | post-emergent herbicidal activity index (Crabgrass; 4 WAT, 1.12 kg/h): 2 (50-74% control) | post-emergent herbicidal activity index (Crabgrass; 4 WAT, 5.6 kg/h): 2 (50-74% control) | post-emergent herbicidal activity index (Smartweed; Table I, 4 WAT, 5.6 kg/h): 4 (100% control) | post-emergent herbicidal activity index (Smartweed; Table I, 4 WAT, 11.2 kg/h): 4 (100% control) | post-emergent herbicidal activity index (Smartweed; Table II, 2 WAT, 0.28 kg/h): 0 (0-24% control) | post-emergent herbicidal activity index (Smartweed; Table II, 4 WAT, 1.12 kg/h): 0 (0-24% control) | post-emergent herbicidal activity index (Smartweed; Table II, 4 WAT, 5.6 kg/h): 2 (50-74% control) | post-emergent herbicidal activity index (Sorghum; 2 WAT, 0.28 kg/h): 1 (25-49% control) | post-emergent herbicidal activity index (Sorghum; 4 WAT, 1.12 kg/h): 3 (75-99% control) | post-emergent herbicidal activity index (Sorghum; 4 WAT, 5.6 kg/h): 4 (100% control)
